Tested on: MDA-MB-231 cells
Assay: Extracellular lactate production inhibition after 4 h, MDA-MB-231
Conditions: Homo sapiens, MDA-MB-231
Description: Extracellular Lactate Production Inhibition after 4 h
Cells were plated in growth media supplemented with 10% FBS, followed by overnight recovery at 37° C., 5% CO2. […] Plates were then moved for 4 h incubation at 37° C., 5% CO2 with subsequent 20 μl media transfer to empty 384-well transparent plates. […] Plates were short-spun and measured kinetically in absorbance mode (530 nm, 12 min measurement time with 2-minute intervals between subsequent readouts at 30° C.). Differences in the signal between T8 min and T0min were normalized to vehicle (cells w/ 0.25% DMSO) and quasi-positive (LCIS buffer w/ 0.25% DMSO) controls and plotted against logarithmically-transformed test compound concentrations with fitting the 4-parameter model in GraphPad Prism software.

| IC50 | SMILES |
| --- | --- |
| 1000 to 100000 nM | O=C(O)c1ccc(C#Cc2ccccc2NS(=O)(=O)c2cccc3ncccc23)cc1 [Compound 35, 4-{2-[2-(quinoline-5-sulfonamido)phenyl]ethynyl}benzoic acid] |
| 1000 to 100000 nM | CCN(c1ccccc1C#Cc1ccc(C(=O)O)cc1)S(=O)(=O)c1ccc2ccccc2c1 [Compound 36, 4-{2-[2-(N-ethylnaphthalene-2-sulfonamido)phenyl]ethynyl}benzoic acid] |
| 100 to 1000 nM | COc1ccc(S(=O)(=O)Nc2ccc(F)cc2C#Cc2ccc(C(=O)O)nc2)c2ccccc12 [Compound 37, 5-{2-[5-fluoro-2-(4-methoxynaphthalene-1-sulfonamido)phenyl]ethynyl}pyridine-2-carboxylic acid] |
| 1000 to 100000 nM | O=C(O)c1ccc(C#Cc2ccccc2NS(=O)(=O)c2cnc3ccccc3c2)cc1 [Compound 40, 4-{2-[2-(quinoline-3-sulfonamido)phenyl]ethynyl}benzoic acid] |
| 100 to 1000 nM | Cc1ccc(C#Cc2ccc(C(=O)O)cc2)c(NS(=O)(=O)c2ccc3ccccc3c2)n1 [Compound 41, 4-{2-[6-methyl-2-(naphthalene-2-sulfonamido)pyridin-3-yl]ethynyl}benzoic acid] |
| 100 to 1000 nM | COc1ccc(S(=O)(=O)Nc2ccccc2C#Cc2ccc(C(=O)O)nc2)c(C)c1C [Compound 42, 5-{2-[2-(4-methoxy-2,3-dimethylbenzenesulfonamido)phenyl]-ethynyl}pyridine-2-carboxylic acid] |
| 100 to 1000 nM | O=C(O)c1ccc(C#Cc2ccccc2NS(=O)(=O)c2ccc3cc(Cl)ccc3c2)cc1 [Compound 43, 4-{2-[2-(6-chloronaphthalene-2-sulfonamido)phenyl]ethynyl}benzoic acid] |
| 100 to 1000 nM | COc1ccc(S(=O)(=O)Nc2ccccc2C#Cc2ccc(C(=O)O)c(F)c2)c2ccccc12 [Compound 45, 2-fluoro-4-{2-[2-(4-methoxynaphthalene-1-sulfonamido)phenyl]ethynyl}benzoic acid] |
| 100 to 1000 nM | Cc1ccc(C#Cc2ccc(C(=O)O)cc2)c(NS(=O)(=O)c2ccc3ccccc3c2)c1 [Compound 46, 4-{2-[4-methyl-2-(naphthalene-2-sulfonamido)phenyl]ethynyl}benzoic acid] |
| 100 to 1000 nM | COc1ccc(S(=O)(=O)Nc2ccccc2C#Cc2ccc(C(=O)O)cc2)c(C)c1 [Compound 47, 4-{2-[2-(4-methoxy-2-methylbenzenesulfonamido)phenyl]ethynyl} benzoic acid] |
| 100 to 1000 nM | COc1ncc(S(=O)(=O)Nc2ccccc2C#Cc2ccc(C(=O)O)cc2)cc1Br [Compound 48, 4-{2-[2-(5-bromo-6-methoxypyridine-3-sulfonamido)phenyl]ethynyl}benzoic acid] |
| 100 to 1000 nM | Cc1cc(C#Cc2ccccc2NS(=O)(=O)c2ccc3ccccc3c2)cnc1C(=O)O [Compound 49, 3-methyl-5-{2-[2-(naphthalene-2-sulfonamido)phenyl]ethynyl}pyridine-2-carboxylic acid] |
| 1000 to 100000 nM | Cc1cc(C(=O)O)ncc1C#Cc1ccccc1NS(=O)(=O)c1ccc2ccccc2c1 [Compound 50, 4-methyl-5-{2-[2-(naphthalene-2-sulfonamido)phenyl]ethynyl}pyridine-2-carboxylic acid] |
| 1000 to 100000 nM | Cc1nc(C(=O)O)ccc1C#Cc1ccccc1NS(=O)(=O)c1ccc2ccccc2c1 [Compound 51, 6-methyl-5-{2-[2-(naphthalene-2-sulfonamido)phenyl]ethynyl}pyridine-2-carboxylic acid] |
| 1000 to 100000 nM | Cc1cncc2c(S(=O)(=O)Nc3ccccc3C#Cc3ccc(C(=O)O)cc3)cccc12 [Compound 54, 4-{2-[2-(4-methylisoquinoline-8-sulfonamido)phenyl]ethynyl}benzoic acid] |
| 1000 to 100000 nM | O=C(O)c1ccc(C#Cc2ccccc2NS(=O)(=O)c2ccc3ncccc3c2)cc1 [Compound 55, 4-{2-[2-(quinoline-6-sulfonamido)phenyl]ethynyl}benzoic acid] |
| 100 to 1000 nM | COc1ccc(S(=O)(=O)Nc2ccccc2C#Cc2ccc(C(=O)O)cc2)cc1C [Compound 56, 4-{2-[2-(4-methoxy-3-methylbenzenesulfonamido)phenyl]-ethynyl}benzoic acid] |
| 1000 to 100000 nM | CCOc1cc(C#Cc2ccccc2NS(=O)(=O)c2ccc3ccccc3c2)ccc1C(=O)O [Compound 57, 2-ethoxy-4-{2-[2-(naphthalene-2-sulfonamido)phenyl]ethynyl}benzoic acid] |
| 100 to 1000 nM | CCOc1cc(C#Cc2ccccc2NS(=O)(=O)c2ccc(OC)c3ccccc23)ccc1C(=O)O [Compound 58, 2-ethoxy-4-{2-[2-(4-methoxynaphthalene-1-sulfonamido)phenyl]ethynyl}benzoic acid] |
| 100 to 1000 nM | Cc1cc(C#Cc2ccccc2NS(=O)(=O)c2cccc3cccnc23)cnc1C(=O)O [Compound 59, 3-methyl-5-{2-[2-(quinoline-8-sulfonamido)phenyl]ethynyl}pyridine-2-carboxylic acid] |
| 1000 to 100000 nM | Cc1nc(C(=O)O)ccc1C#Cc1ccccc1NS(=O)(=O)c1cccc2cccnc12 [Compound 60, 6-methyl-5-{2-[2-(quinoline-8-sulfonamido)phenyl]ethynyl}pyridine-2-carboxylic acid] |

| IC50 | SMILES |
| --- | --- |
| 100 to 1000 nM | Cc1cc(C(=O)O)ncc1C#Cc1ccccc1NS(=O)(=O)c1cccc2cccnc12 [Compound 61, 4-methyl-5-{2-[2-(quinoline-8-sulfonamido)phenyl]ethynyl}pyridine-2-carboxylic acid] |
| 100 to 1000 nM | COc1cc(C#Cc2ccccc2NS(=O)(=O)c2cccc3ccccc23)ccc1C(=O)O [Compound 62, 2-methoxy-4-{2-[2-(naphthalene-1-sulfonamido)phenyl]ethynyl}benzoic acid] |
| 100 to 1000 nM | COc1ccc(S(=O)(=O)Nc2ccccc2C#Cc2cnc(C(=O)O)c(C)c2)c2ccccc12 [Compound 63, 5-{2-[2-(4-methoxynaphthalene-1-sulfonamido)phenyl]ethynyl}-3-methylpyridine-2-carboxylic acid] |
| 1000 to 100000 nM | Cc1cccc(C#Cc2ccc(C(=O)O)cc2)c1NS(=O)(=O)c1ccc2ccccc2c1 [Compound 64, 4-{2-[3-methyl-2-(naphthalene-2-sulfonamido)phenyl]ethynyl}benzoic acid] |
| 1000 to 100000 nM | O=C(O)c1ncc(C#Cc2ccccc2NS(=O)(=O)c2ccc3ccccc3c2)cc1F [Compound 65, 3-fluoro-5-{2-[2-(naphthalene-2-sulfonamido)phenyl]ethynyl}pyridine-2-carboxylic acid] |
| 1000 to 100000 nM | O=C(O)c1ccc(C#Cc2ccccc2NS(=O)(=O)c2cccc3nccnc23)cc1 [Compound 66, 4-{2-[2-(quinoxaline-5-sulfonamido)phenyl]ethynyl}benzoic acid] |
| 100 to 1000 nM | COc1ccc(S(=O)(=O)Nc2ccccc2C#Cc2ccc(C(=O)O)c(OC)c2)c(C)c1 [Compound 67, 2-methoxy-4-{2-[2-(4-methoxy-2-methylbenzenesulfonamido)phenyl]-ethynyl}benzoic acid] |
| 100 to 1000 nM | O=C(O)c1ccc(C#Cc2cc(F)ccc2NS(=O)(=O)c2cccc3ccccc23)cc1 [Compound 68, 4-{2-[5-fluoro-2-(naphthalene-1-sulfonamido)phenyl]ethynyl}benzoic acid] |
| 100 to 1000 nM | O=C(O)c1ccc(C#Cc2ccccc2NS(=O)(=O)c2cccc3ccccc23)cc1F [Compound 69, 2-fluoro-4-{2-[2-(naphthalene-1-sulfonamido)phenyl]ethynyl}benzoic acid] |
| 100 to 1000 nM | O=C(O)c1ccc(C#Cc2ccccc2NS(=O)(=O)c2cccc3ccccc23)cn1 [Compound 70, 5-{2-[2-(naphthalene-1-sulfonamido)phenyl]ethynyl}pyridine-2-carboxylic acid] |
| 1000 to 100000 nM | COc1cc(C#Cc2ccccc2NS(=O)(=O)c2cccc3ccccc23)cnc1C(=O)O [Compound 71, 3-methoxy-5-{2-[2-(naphthalene-1-sulfonamido)phenyl]ethynyl}pyridine-2-carboxylic acid] |
| 1000 to 100000 nM | COc1ccc(S(=O)(=O)Nc2ccccc2C#Cc2ccc(C(=O)O)nc2)c(C)c1 [Compound 72, 5-{2-[2-(4-methoxy-2-methylbenzenesulfonamido)phenyl]-ethynyl}pyridine-2-carboxylic acid] |
| 100 to 1000 nM | O=C(O)c1ccc(C#Cc2ccccc2NS(=O)(=O)c2cc3ccccc3o2)cc1 [Compound 73, 4-{2-[2-(1-benzofuran-2-sulfonamido)phenyl]ethynyl}benzoic acid] |
| 100 to 1000 nM | Cc1cc(C#Cc2ccccc2NS(=O)(=O)c2cccc3ccccc23)cnc1C(=O)O [Compound 74, 3-methyl-5-{2-[2-(naphthalene-1-sulfonamido)phenyl]ethynyl}pyridine-2-carboxylic acid] |
| 100 to 1000 nM | Cc1ccc(S(=O)(=O)Nc2ccccc2C#Cc2ccc(C(=O)O)cc2)c2ccccc12 [Compound 75, 4-{2-[2-(4-methylnaphthalene-1-sulfonamido)phenyl]ethynyl}benzoic acid] |
| 1000 to 100000 nM | O=C(O)c1ccc(C#Cc2ccccc2NS(=O)(=O)C2CS(=O)(=O)c3ccccc32)cc1 (stereo not drawn) [Compound 76, 4-{2-[2-(1,1-dioxo-2,3-dihydro-1lambda6-benzo[b]thiophene-3-sulfonamido)phenyl]ethynyl}benzoic acid] |
| 100 to 1000 nM | O=C(O)c1ccc(C#Cc2ccccc2NS(=O)(=O)C2=Cc3ccccc3CC2)cc1 [Compound 78, 4-{2-[2-(3,4-dihydronaphthalene-2-sulfonamido)phenyl]ethynyl}benzoic acid] |
| 100 to 1000 nM | Cc1cc(C#Cc2ccccc2NS(=O)(=O)c2cccc3ccccc23)ccc1C(=O)O [Compound 80, 2-methyl-4-{2-[2-(naphthalene-1-sulfonamido)phenyl]ethynyl}benzoic acid] |
| 100 to 1000 nM | O=C(O)c1ccc(C#Cc2ccccc2NS(=O)(=O)C2=Cc3ccccc3CC2)cn1 [Compound 81, 5-{2-[2-(3,4-dihydronaphthalene-2-sulfonamido)phenyl]ethynyl}pyridine-2-carboxylic acid] |
| 1000 to 100000 nM | COc1cnc2cc(S(=O)(=O)Nc3ccccc3C#Cc3ccc(C(=O)O)cc3)ccc2n1 [Compound 82, 4-{2-[2-(2-methoxyquinoxaline-6-sulfonamido)phenyl]ethynyl}benzoic acid] |

| SMILES | IC50 |
| --- | --- |
| O=C(O)c1ccc(C#Cc2ccccc2NS(=O)(=O)c2cccc3cccnc23)cn1 [Compound 52, 5-{2-[2-(quinoline-8-sulfonamido)phenyl]ethynyl}pyridine-2-carboxylic acid] | 100 to 1000 nM |

Source: patent publication US12351570B2 (MERCK PATENT GMBH, priority 2018, dated 2025)
